Results taken from US20140288026A1, “IN[…]” (MAGNA E[…]., priority 2011, published 2014).

Assay: Hydrolysis of dilute aqueous insecticide solution (EPA OPPT 835.2130 Hydrolysis as a Function of pH and Temperature)
Type: physicochemical
Details: for Bifenthrin remaining: same solution plus 220ppm polymer particles (55% solids vinyl acetate-ethylene copolymer latex, Tg 10° C.)
Method: In fact, we have made dilute aqueous solutions of Bifenthrin (0.0895 ppm at pH 11.0) in accordance with EPA Fate, Transport and Transformation Test Guidelines OPPT 835.2130 Hydrolysis as a Function of pH and Temperature. After 5 hours at 25° C. only 45% of the insecticide could be detected in the solution and after 15 hours only 12% remained.

For `Cc1c(COC(=O)[C@@H]2[C@H](/C=C(\Cl)C(F)(F)F)C2(C)C)cccc1-c1ccccc1` (racemic) [Bifenthrin], the “insecticide detected in the solution” value (0.0895 ppm aqueous solution at pH 11.0, 25° C., after 5 hours, no polymer particles) was 45%, the “insecticide remaining in the solution” value (0.0895 ppm aqueous solution at pH 11.0, 25° C., after 15 hours, no polymer particles) was 12% and the Bifenthrin remaining (after 5 hours) was 95%. For the same molecule, the Bifenthrin remaining (after 15 hours) was 93%.
